Patent US20100310471A1, “ANTIOXIDANT AND PARAMAGNETIC HEPARIN-NITROXIDE DERIVATIVES” (Johannes Gutenberg-Universität Mainz, priority 2007, published 2010)

Legend:
[1] = test system: heparin-binding sites of the vascular wall (rat aorta); assay: Binding to rat aortic rings, detected by EPR (X-band) after wash with Krebs; details: for replacement of heparin-nitroxide from heparin-binding sites of rat aorta by dextran: 100 μM H—NR-2, 1 hr, 37° C., with 1 mM or 10 mM dextran (up to 100 molar excess)
Experimental: Therefore, the heparin-nitroxide derivative of the present invention is able to specifically bind with high affinity to specific sites in biological vessels.
FIG. 4. Spectra EPR, (A) 10 μM H—NR-1 solution; (B) rat aortic ring (3 mm long) pre-incubated with 10 μM H—NR-1 for 1 hour and then washed 3 times with Krebs buffer; (C) rat aortic ring (3 mm long) pre-incubated with 10 μM H—NR-1 in the presence of heparin (liquemin, 30 units/ml) for 1 hour and then washed 3 times with Krebs buffer; (D) 5 μM 4-hydroxy-TEMPO; (E) rat aortic ring (3 mm long) pre-incubated with 10 μM 4-hydroxy-TEMPO for 1 hour and then washed 3 times with Krebs buffer. EPR spectra were recorded at room temperature using an X-band radiospectrometer MS200 (Magnettech GmbH, Berlin). Instrument parameters were 10 mW microwave power, 0.1 mT amplitude modulation, 100 kHz modulation frequency, sweep field 5 mT and 60 s sweep time. Representative spectra of 3 experiments are shown.
FIG. 5. The binding of H—NR-1 to rat aorta as a function of time and concentration. Rat aortic rings (3 mm long) were incubated (37° C.) with 10 μM or 100 μM H—NR-1 either for 0.5 hr, 1 hr, 1.5 hr, 2 hr, 3 hr and then washed out with Krebs solution. To estimate the amount of H—NR-1 bound to tissue, aortic rings were placed in capillaries, and spectra EPR(X-band) were recorded.
FIG. 6. […] Rat aortic rings (3 mm long) with or without endothelium were incubated (37° C.) with 10 μM H—NR-1 for 1 hr and then washed out with Krebs solution. To estimate the amount of H—NR-1 bound to tissue, aortic rings were placed in capillaries and spectra EPR(X-band) were recorded at room temperature.
FIG. 12. […] Rat aortic rings (3 mm long) were incubated (37° C.) with 100 μM H—NR-2 for 1 hr and then washed out with Krebs solution. Rings were incubated with H—NR-2 along (A) or in the presence of 1 mM dextran (B), or in the presence of 10 mM dextran (C). To estimate the amount of H—NR-2 bound to tissue, aortic rings were placed in capillaries, and spectra EPR(X-band) were recorded.

[2] = EPR spectra of H—NRs in aqueous solution (line width); assay type: physicochemical; details: 0.1 mM aqueous solutions, pH 7.4, room temperature, X-band
Experimental: FIG. 2. Spectra EPR of TEMPO and different H—NRs (0.1 mM aqueous solutions, pH 7.4). EPR spectra were recorded at room temperature using an X-band radiospectrometer MS200 (Magnettech GmbH, Berlin). Instrument parameters were 10 mW microwave power, 0.1 mT amplitude modulation, 100 kHz modulation frequency, sweep field 11 mT and 120 s sweep time.
The line widths of the EPR signals of all H—NRs were slightly broader in comparison to the EPR signal of TEMPOL, indicating slight decrease in the mobility of nitroxyl groups upon binding to heparin as well as spin-spin interactions between them. Thus, ΔH (in gauss) were 1.8, 2.1, 2.5, 2.0 and 2.5 for TEMPOL, H—NR-1, H—NR-2, H—NR-3 and H—NR-4, respectively. The line width the signal is critical for the in vivo EPR imaging. A narrower signal provides for better resolution, and is therefore preferred. As a result, the H—NR-3, in which nitroxide is bound to heparin via a linker, provides for a higher spectral mobility, and is thus preferred for EPR imaging.

[3] = known value; cited from earlier work

| Molecule | binding to rat aorta (EPR signal in tissue after wash) ([1]; aortic ring pre-incubated with 10 μM for 1 hour, washed 3 times with Krebs buffer) | ΔH, line width of the EPR signal [2] | half-life in vivo [3] | replacement of heparin-nitroxide from heparin-binding sites of rat aorta by dextran [1] | replacement of heparin-nitroxide from heparin-binding sites of rat aorta by dextran ([1]; listed as Dextran) |
| --- | --- | --- | --- | --- | --- |
| CC1(C)CC(O)CC(C)(C)N1[O] [TEMPOL, 4-hydroxy-2,2,6,6-tetramethylpiperidine-N-oxyl] | did not result in the appearance of the EPR signal in tissue | 1.8 gauss | only a few minutes | – | – |
| dextran | – | – | – | unable to replace heparin-nitroxide from the vascular tissue | unable to replace Heparin-nitroxide |
